According to the supplement of paper PMC10307832:

What was measured:
Test in all cases: relative viability (nuclei count vs DMSO), 5 days (fraction); higher = more cells survive
NCI-H1666 = settings: first compound 1 µM
Summary of the method: (§1)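 Cells from lung cancer lines were seeded into 1536-well plates and, one day later, dosed by pin tool. Treatments were either a single drug or a fixed dose of an anchor drug with five library-drug doses (not always all listed) in √10 steps. After 5 days, nuclei were stained in a one-step fixation (final 0.05% Triton X-100, 1% formaldehyde, 1 ug/ml Hoechst) and counted on 4× images, and relative viability is the treated-to-vehicle nuclei ratio, as the median of duplicate plates.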

NCI-H1944 = tested on: NCI-H1944
Summary of the method: as §1

NCI-H1975 = tested on: NCI-H1975
Summary of the method: as §1

NCI-H2087 = tested on: NCI-H2087
Summary of the method: as §1

NCI-H2342 = tested on: NCI-H2342
Summary of the method: as §1

NCI-H358 = tested on: NCI-H358
Summary of the method: as §1

NCI-H596 = tested on: NCI-H596
Summary of the method: as §1

NCI-H650 = tested on: NCI-H650
Summary of the method: as §1

NCI-H661 = tested on: NCI-H661
Summary of the method: as §1

NCI-H838 = tested on: NCI-H838
Summary of the method: as §1

PC-3 [JPC-3] = tested on: PC-3 [JPC-3]
Summary of the method: as §1

SK-MES-1 = tested on: SK-MES-1
Summary of the method: as §1

O=c1cc(N2CCOCC2)oc2c(-c3cccc4c3sc3ccccc34)cccc12 + Nc1ncn([C@H]2C[C@H](O)[C@@H](CO)O2)c(=O)n1 [Decitabine] (partner 2 µM)
relative viability (NCI-H1666): 0.677
relative viability (NCI-H1944; first compound 0.01 µM): 0.488
relative viability (NCI-H1944; first compound 0.03162 µM): 0.448
relative viability (NCI-H1944; first compound 0.1 µM): 0.443
relative viability (NCI-H1944; first compound 0.3162 µM): 0.408
relative viability (NCI-H1944; first compound 1 µM): 0.481
relative viability (NCI-H1975; first compound 0.01 µM): 0.438
relative viability (NCI-H1975; first compound 0.03162 µM): 0.4
relative viability (NCI-H1975; first compound 0.1 µM): 0.394
relative viability (NCI-H1975; first compound 0.3162 µM): 0.371
relative viability (NCI-H1975; first compound 1 µM): 0.353
relative viability (NCI-H2087; first compound 0.01 µM): 0.261
relative viability (NCI-H2087; first compound 0.03162 µM): 0.257
relative viability (NCI-H2087; first compound 0.1 µM): 0.336
relative viability (NCI-H2087; first compound 0.3162 µM): 0.306
relative viability (NCI-H2087; first compound 1 µM): 0.297
relative viability (NCI-H2342; first compound 0.01 µM): 0.631
relative viability (NCI-H2342; first compound 0.03162 µM): 0.652
relative viability (NCI-H2342; first compound 0.1 µM): 0.774
relative viability (NCI-H2342; first compound 0.3162 µM): 0.726
relative viability (NCI-H2342; first compound 1 µM): 0.672
relative viability (NCI-H358; first compound 0.01 µM): 0.222
relative viability (NCI-H358; first compound 0.03162 µM): 0.218
relative viability (NCI-H358; first compound 0.1 µM): 0.218
relative viability (NCI-H358; first compound 0.3162 µM): 0.21
relative viability (NCI-H358; first compound 1 µM): 0.193
relative viability (NCI-H596; first compound 0.01 µM): 0.974
relative viability (NCI-H596; first compound 0.03162 µM): 1.07
relative viability (NCI-H596; first compound 0.1 µM): 1.09
relative viability (NCI-H596; first compound 0.3162 µM): 1.03
relative viability (NCI-H596; first compound 1 µM): 1.05
relative viability (NCI-H650; first compound 0.01 µM): 0.319
relative viability (NCI-H650; first compound 0.03162 µM): 0.384
relative viability (NCI-H650; first compound 0.3162 µM): 0.338
relative viability (NCI-H650; first compound 1 µM): 0.303
relative viability (NCI-H661; first compound 0.01 µM): 0.563
relative viability (NCI-H661; first compound 0.03162 µM): 0.53
relative viability (NCI-H661; first compound 0.1 µM): 0.599
relative viability (NCI-H661; first compound 0.3162 µM): 0.535
relative viability (NCI-H661; first compound 1 µM): 0.587
relative viability (NCI-H838; first compound 0.01 µM): 0.481
relative viability (NCI-H838; first compound 0.03162 µM): 0.49
relative viability (NCI-H838; first compound 0.1 µM): 0.479
relative viability (NCI-H838; first compound 0.3162 µM): 0.482
relative viability (NCI-H838; first compound 1 µM): 0.478
relative viability (PC-3 [JPC-3]; first compound 0.01 µM): 0.809
relative viability (PC-3 [JPC-3]; first compound 0.03162 µM): 0.859
relative viability (PC-3 [JPC-3]; first compound 0.1 µM): 0.874
relative viability (PC-3 [JPC-3]; first compound 0.3162 µM): 0.814
relative viability (PC-3 [JPC-3]; first compound 1 µM): 0.811
relative viability (SK-MES-1; first compound 0.01 µM): 0.419
relative viability (SK-MES-1; first compound 0.03162 µM): 0.43
relative viability (SK-MES-1; first compound 0.1 µM): 0.366
relative viability (SK-MES-1; first compound 0.3162 µM): 0.351
relative viability (SK-MES-1; first compound 1 µM): 0.365
